From patent publication US20240209019A1, “COMPOUNDS AND METHODS FOR TREATING HYPERKALEMIA” (ARDELYX, INC., priority 2019, published 2024)

target: HSD2 (Homo sapiens (Human), UniProt P80365); assay: HSD2 activity: cortisol conversion in human descending colon organoid monolayer cultures (Example 112); details: not given
Sequence (P80365 whole entry): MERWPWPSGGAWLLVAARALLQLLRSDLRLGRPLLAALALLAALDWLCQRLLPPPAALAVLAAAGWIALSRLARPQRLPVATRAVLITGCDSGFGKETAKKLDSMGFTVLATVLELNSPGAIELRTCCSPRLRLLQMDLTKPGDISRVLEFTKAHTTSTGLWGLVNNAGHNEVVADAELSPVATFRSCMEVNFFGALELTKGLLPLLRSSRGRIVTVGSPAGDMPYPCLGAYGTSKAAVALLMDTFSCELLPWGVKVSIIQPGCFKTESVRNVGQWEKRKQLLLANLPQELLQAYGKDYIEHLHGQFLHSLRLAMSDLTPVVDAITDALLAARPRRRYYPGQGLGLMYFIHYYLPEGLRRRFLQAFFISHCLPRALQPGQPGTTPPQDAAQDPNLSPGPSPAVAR

`COCCOCCOCCOCCC(=O)O[C@H]1CC[C@@]2(C)[C@@H](CC[C@]3(C)[C@@H]2C(=O)C=C2[C@@H]4C[C@@](C)(C(=O)O)CC[C@]4(C)CC[C@]23C)[C@]1(C)C(=O)O` [Compound 190-3, (2S,4aS,6aS,6bR,8aR,9S,10S,12aS,12bR,14bR)-10-((2,5,8,11-tetraoxatetradecan-14-oyl)oxy)-2,4a,6a,6b,9,12a-hexamethyl-13-oxo-1,2,3,4,4a,5,6,6a,6b,7,8,8a,9,10,11,12,12a,12b,13,14b-icosahydropicene-2,9-dicarboxylic acid] showed an IC50 of over 10 µM.

same assay, conditions: human descending colon epithelial cultures on transwells; 30 minute pre-incubation, then 40 nM cortisol for four hours; cortisol HTRF assay

In order of rising pIC50:
1. COCO[C@H]1CC[C@@]2(C)[C@@H](CC[C@]3(C)[C@@H]2C(=O)C=C2[C@@H]4C[C@@](C)(C(=O)O)CC[C@]4(C)CC[C@]23C)[C@]1(C)C(=O)O [(2S,4aS,6aS,6bR,8aR,9S,10S,12aS,12bR,14bR)-10-(methoxymethoxy)-2,4a,6a,6b,9,12a-hexamethyl-13-oxo-1,2,3,4,4a,5,6,6a,6b,7,8,8a,9,10,11,12,12a,12b,13,14b-icosahydropicene-2,9-dicarboxylic acid]  5.1
2. CSCC(=O)O[C@H]1CC[C@@]2(C)[C@@H](CC[C@]3(C)[C@@H]2C(=O)C=C2[C@@H]4C[C@@](C)(C(=O)O)CC[C@]4(C)CC[C@]23C)[C@]1(C)C(=O)O [(2S,4aS,6aS,6bR,8aR,9S,10S,12aS,12bR,14bR)-2,4a,6a,6b,9,12a-hexamethyl-10-{[2-(methylsulfanyl)acetyl]oxy}-13-oxo-1,2,3,4,4a,5,6,6a,6b,7,8,8a,9,10,11,12,12a,12b,13,14b-icosahydropicene-2,9-dicarboxylic acid]  5.4
3. CC1(C)[C@@H](OCC(=O)O)CC[C@]2(C)[C@H]3C(=O)C=C4[C@@H]5C[C@@](C)(C(=O)O)CC[C@]5(C)CC[C@@]4(C)[C@]3(C)CC[C@@H]12 [Compound 78-2, (2S,4aS,6aS,6bR,8aR,10S,12aS,12bR,14bR)-10-(Carboxymethoxy)-2,4a,6a,6b,9,9,12a-heptamethyl-13-oxo-1,2,3,4,4a,5,6,6a,6b,7,8,8a,9,10,11,12,12a,12b,13,14b-icosahydropicene-2-carboxylic acid]  5.4
4. CC1(C)[C@@H](C(=O)O)CC[C@]2(C)[C@H]3C(=O)C=C4[C@@H]5C[C@@](C)(C(=O)O)CC[C@]5(C)CC[C@@]4(C)[C@]3(C)CC[C@@H]12 [(2S,4aS,6aS,6bR,8aS,10S,12aS,12bR,14bR)-2,4a,6a,6b,9,9,12a-heptamethyl-13-oxo-1,2,3,4,4a,5,6,6a,6b,7,8,8a,9,10,11,12,12a,12b,13,14b-icosahydropicene-2,10-dicarboxylic acid]  5.5
5. CCOC(=O)c1cnn([C@H]2CC[C@@]3(C)[C@@H](CC[C@]4(C)[C@@H]3C(=O)C=C3[C@@H]5C[C@@](C)(C(=O)O)CC[C@]5(C)CC[C@]34C)[C@]2(C)C(=O)O)c1OC [(2S,4aS,6aS,6bR,8aR,9S,10S,12aS,12bR,14bR)-10-[4-(ethoxycarbonyl)-5-methoxy-1H-pyrazol-1-yl]-2,4a,6a,6b,9,12a-hexamethyl-13-oxo-1,2,3,4,4a,5,6,6a,6b,7,8,8a,9,10,11,12,12a,12b,13,14b-icosahydropicene-2,9-dicarboxylic acid]  5.6
6. C[C@]1(C(=O)O)CC[C@]2(C)CC[C@]3(C)C(=CC(=O)[C@@H]4[C@@]5(C)CC[C@H](OC(=O)C6CC6)[C@@](C)(C(=O)O)[C@@H]5CC[C@]43C)[C@@H]2C1 [(2S,4aS,6aS,6bR,8aR,9S,10S,12aS,12bR,14bR)-10-(cyclopropanecarbonyloxy)-2,4a,6a,6b,9,12a-hexamethyl-13-oxo-1,2,3,4,4a,5,6,6a,6b,7,8,8a,9,10,11,12,12a,12b,13,14b-icosahydropicene-2,9-dicarboxylic acid]  5.8
7. CC(=O)O[C@H]1CC[C@@]2(C)[C@@H](CC[C@]3(C)[C@@H]2C(=O)C=C2[C@@H]4C[C@@](C)(C(=O)O)CC[C@]4(C)CC[C@]23C)[C@]1(C)C(=O)O [(2S,4aS,6aS,6bR,8aR,9S,10S,12aS,12bR,14bR)-10-(acetyloxy)-2,4a,6a,6b,9,12a-hexamethyl-13-oxo-1,2,3,4,4a,5,6,6a,6b,7,8,8a,9,10,11,12,12a,12b,13,14b-icosahydropicene-2,9-dicarboxylic acid]  5.9
8. C[C@]1(C(=O)O)CC[C@]2(C)CC[C@]3(C)C(=CC(=O)[C@@H]4[C@@]5(C)CC[C@H](OC(=O)CO)[C@@](C)(C(=O)O)[C@@H]5CC[C@]43C)[C@@H]2C1 [(2S,4aS,6aS,6bR,8aR,9S,10S,12aS,12bR,14bR)-10-[(2-hydroxyacetyl)oxy]-2,4a,6a,6b,9,12a-hexamethyl-13-oxo-1,2,3,4,4a,5,6,6a,6b,7,8,8a,9,10,11,12,12a,12b,13,14b-icosahydropicene-2,9-dicarboxylic acid]  5.9
9. Cc1oc(=O)oc1COC(=O)[C@H]1CC[C@]2(C)[C@H]3C(=O)C=C4[C@@H]5C[C@@](C)(C(=O)O)CC[C@]5(C)CC[C@@]4(C)[C@]3(C)CC[C@H]2C1(C)C [Compound 176-2, (2S,4aS,6aS,6bR,8aS,10S,12aS,12bR,14bR)-2,4a,6a,6b,9,9,12a-Heptamethyl-10-(((5-methyl-2-oxo-1,3-dioxol-4-yl)methoxy)carbonyl)-13-oxo-1,2,3,4,4a,5,6,6a,6b,7,8,8a,9,10,11,12,12a,12b,13,14b-icosahydropicene-2-carboxylic acid]  6.3
10. CC1OC(=O)OC1COC(=O)[C@H]1CC[C@]2(C)[C@H]3C(=O)C=C4[C@@H]5C[C@@](C)(C(=O)O)CC[C@]5(C)CC[C@@]4(C)[C@]3(C)CC[C@H]2C1(C)C (stereo partly drawn) [Compound 178-1, (2S,4aS,6aS,6bR,8aS,10S,12aS,12bR,14bR)-2,4a,6a,6b,9,9,12a-Heptamethyl-10-(((5-methyl-2-oxo-1,3-dioxolan-4-yl)methoxy)carbonyl)-13-oxo-1,2,3,4,4a,5,6,6a,6b,7,8,8a,9,10,11,12,12a,12b,13,14b-icosahydropicene-2-carboxylic acid]  6.3
11. Cc1oc(=O)oc1COC(=O)[C@]1(C)[C@@H](OC(=O)CS(C)(=O)=O)CC[C@@]2(C)[C@H]1CC[C@]1(C)[C@@H]2C(=O)C=C2[C@@H]3C[C@@](C)(C(=O)O)CC[C@]3(C)CC[C@]21C [Compound 195-2, (2S,4aS,6aS,6bR,8aR,9S,10S,12aS,12bR,14bR)-2,4a,6a,6b,9,12a-Hexamethyl-9-(((5-methyl-2-oxo-1,3-dioxol-4-yl)methoxy)carbonyl)-10-(2-(methylsulfonyl)acetoxy)-13-oxo-1,2,3,4,4a,5,6,6a,6b,7,8,8a,9,10,11,12,12a,12b,13,14b-icosahydropicene-2-carboxylic acid]  6.3
12. COCO[C@H]1CC[C@@]2(C)[C@@H](CC[C@]3(C)[C@@H]2C(=O)C=C2[C@@H]4C[C@@](C)(C(=O)O)CC[C@]4(C)CC[C@]23C)[C@]1(C)C(=O)OCc1oc(=O)oc1C [Compound 205-2, (2S,4aS,6aS,6bR,8aR,9S,10S,12aS,12bR,14bR)-10-(Methoxymethoxy)-2,4a,6a,6b,9,12a-hexamethyl-9-(((5-methyl-2-oxo-1,3-dioxol-4-yl)methoxy)carbonyl)-13-oxo-1,2,3,4,4a,5,6,6a,6b,7,8,8a,9,10,11,12,12a,12b,13,14b-icosahydropicene-2-carboxylic acid]  6.4
13. C[C@]1(C(=O)O)CC[C@]2(C)CC[C@]3(C)C(=CC(=O)[C@@H]4[C@@]5(C)CC[C@H](OC(=O)c6ccccc6)[C@@](C)(C(=O)O)[C@@H]5CC[C@]43C)[C@@H]2C1 [(2S,4aS,6aS,6bR,8aR,9S,10S,12aS,12bR,14bR)-10-(benzoyloxy)-2,4a,6a,6b,9,12a-hexamethyl-13-oxo-1,2,3,4,4a,5,6,6a,6b,7,8,8a,9,10,11,12,12a,12b,13,14b-icosahydropicene-2,9-dicarboxylic acid]  6.6
14. 2-(3-((1-PEG5K-1H-1,2,3-triazol-4-yl)methoxy)-4-nitrobenzyl) 9-((5-methyl-2-oxo-1,3-dioxol-4-yl)methyl) (2S,4aS,6aS,6bR,8aR,9S,10S,12aS,12bR,14bR)-10-((2,5,8,11-tetraoxatetradecan-14-oyl)oxy)-2,4a,6a,6b,9,12a-hexamethyl-13-oxo-1,2,3,4,4a,5,6,6a,6b,7,8,8a,9,10,11,12,12a,12b,13,14b-icosahydropicene-2,9-dicarboxylate [Compound 605-2]  6.9
15. Cc1oc(=O)oc1COC(=O)[C@]1(C)[C@@H](OC(=O)C2CC2)CC[C@@]2(C)[C@H]1CC[C@]1(C)[C@@H]2C(=O)C=C2[C@@H]3C[C@@](C)(C(=O)O)CC[C@]3(C)CC[C@]21C [Compound 198-2, (2S,4aS,6aS,6bR,8aR,9S,10S,12aS,12bR,14bR)-10-((Cyclopropanecarbonyl)oxy)-2,4a,6a,6b,9,12a-hexamethyl-9-(((5-methyl-2-oxo-1,3-dioxol-4-yl)methoxy)carbonyl)-13-oxo-1,2,3,4,4a,5,6,6a,6b,7,8,8a,9,10,11,12,12a,12b,13,14b-icosahydropicene-2-carboxylic acid]  7.7
16. Cc1oc(=O)oc1COC(=O)[C@]1(C)[C@@H](OC(=O)c2ccccc2)CC[C@@]2(C)[C@H]1CC[C@]1(C)[C@@H]2C(=O)C=C2[C@@H]3C[C@@](C)(C(=O)O)CC[C@]3(C)CC[C@]21C [Compound 197-2, (2S,4aS,6aS,6bR,8aR,9S,10S,12aS,12bR,14bR)-10-(Benzoyloxy)-2,4a,6a,6b,9,12a-hexamethyl-9-(((5-methyl-2-oxo-1,3-dioxol-4-yl)methoxy)carbonyl)-13-oxo-1,2,3,4,4a,5,6,6a,6b,7,8,8a,9,10,11,12,12a,12b,13,14b-icosahydropicene-2-carboxylic acid]  7.9
17. CSCC(=O)O[C@H]1CC[C@@]2(C)[C@@H](CC[C@]3(C)[C@@H]2C(=O)C=C2[C@@H]4C[C@@](C)(C(=O)O)CC[C@]4(C)CC[C@]23C)[C@]1(C)C(=O)OCc1oc(=O)oc1C [Compound 194-10, (2S,4aS,6aS,6bR,8aR,9S,10S,12aS,12bR,14bR)-2,4a,6a,6b,9,12a-Hexamethyl-9-(((5-methyl-2-oxo-1,3-dioxol-4-yl)methoxy)carbonyl)-10-(2-(methylthio)acetoxy)-13-oxo-1,2,3,4,4a,5,6,6a,6b,7,8,8a,9,10,11,12,12a,12b,13,14b-icosahydropicene-2-carboxylic acid]  8
